In patent publication US10017681B2, “Corrosion inhibitors” (RHODIA OPERATIONS, priority 2014, dated 2018):
Where two headings read alike, the source gives them in different places. Marks after values point to notes of the source that are not given here.

Experiments:
[1] = Emulsion tendency (ASTM G-170); format: physicochemical; settings: for Brine (ml) @ T = 30 mins / Isopar M (ml) @ T = 30 mins / Pad (ml) @ T = 30 mins / Emulsion Layer (%): 1000 ppm active, 50/50 v/v Isopar M and 5% NaCl, 25° C.; for Emulsion Layer (%): after 30 minutes
Experimental: The emulsification behaviours of the alkyl phosphonic acids were investigated using the standard test procedure, ASTM G-170. It will be appreciated that, in general, corrosion inhibition formulations which have a low tendency to form emulsions with hydrocarbons are preferred.
1000 ppm active corrosion inhibitor formulation was added to a 250 ml measuring cylinder containing 100 ml 50/50 v/v 5% NaCl and Isopar M respectively. The cylinder was sealed and shaken 100 times.
The mixture was allowed to rest and the emulsion and brine layer volumes were recorded. The brine, Isopar M and emulsion layers were measured at 5, 10 and 30 minutes respectively.

[2] = Foam tendency (dynamic foam test, ASTM G170-06); format: physicochemical; settings: 1000 ppm active; 50/50 v/v Isopar M and 5% NaCl, 25° C.
Experimental: Foam tendencies were investigated using the methods described in ASTM G170-06 (2012) ‘Standard Guide for Evaluating and Qualifying Oilfield and Refinery Corrosion Inhibitors in the Laboratory’.
A graduated dynamic foam test apparatus (1000 ml measuring cylinder) fitted with a No. 1 porosity gas sparge tube was used for the test. 1000 ppm of corrosion inhibitor was added to a 50/50 v/v brine (5% NaCl solution) and Isopar M mixture (200 ml) at ambient temperature (25° C.). The mixture was left for 10 minutes before immersing the sparge tube in the brine layer. Nitrogen gas (flow rate: 0.5 litre/min) was injected into the solution and the volume of foam produced was measured over a set period of time (10 minutes).
If the foam reached the 1000 ml mark (800 ml foam volume) before the 10 minutes had elapsed then the time taken for the foam to reach the 1000 ml mark (800 ml of foam) was recorded. The volume of foam produced after the allotted time was also recorded.
The foam persistence was determined by measuring the foam volume after 10 minutes.

[3] = LPR (Linear Polarisation Resistance) bubble test, Example 2; settings: 90/10 5% NaCl/Isopar M, 60° C., CO2
Experimental: (§1) Corrosion inhibition properties were screened using the LPR (Linear Polarisation Resistance) bubble test method and the film persistence of the surfactants was evaluated using a Rotating Cylinder Electrode (RCE). The conditions were the same in both tests.
(§2) A 90/10 brine (5% w/w NaCl) and Isopar M (C9-15 iso-paraffins) mixture at 60° C. was saturated with CO2. The electrodes were immersed in the brine and left for several hours to establish the base line corrosion rate before injecting the surfactant.
The corrosion rate at 15 hours was used to benchmark the efficacy of the formulations containing octyl phosphonic acid against a commercial corrosion inhibitor. Synergistic properties of the surfactant mixtures were identified by comparing them against the corrosion rates of the individual surfactants.
The surfactant ratios for the LPR/RCE measurements were 80/20 and 50/50 Cl/octyl phosphonic acid and compared against the individual surfactants.

[4] = RCE film persistence under high shear (4000 rpm), Example 2; settings: high shear rates (4000 rpm)
Experimental: as §1, §2
A shear rate of 4000 rpm was used to simulate very high shear conditions in order to determine the film persistence properties of the surfactants.
The persistence of the surfactant corrosion inhibitor film was also assessed under high shear rates (4000 rpm).

[5] = Dynamic surface tension (maximum bubble pressure method); format: physicochemical; settings: 1000 ppm (as active) in 5% NaCl, 25° C., surface age 30 seconds
Experimental: Dynamic Surface Tension measurements were therefore carried out using a Messtechnik SITA T60 tensiometer for mixtures of the alkyl phosphonic acids with selected surfactants (anionic and amphoteric) in 5% NaCl.
These tests were carried out using the maximum bubble pressure method (see ‘Exploiting Surfactant Synergies in the Development of Foamers for Gas Well Deliqufication’, K Hatchman, C Jones, B Downward, G Collins, A Fellows, Proceedings of Chemistry In The Oil Industry XII, Royal Society of Chemistry, 2011).
The surface tensions were measured for 1000 ppm (as active) at a surface age of 30 seconds (equilibrium conditions) and ambient temperature (25° C.).

[6] = Solubility of samples when making stock solutions; format: physicochemical; settings: 2% (w/w active) stock solutions in methanol
[7] = Rotating Cylinder Electrode (RCE) film persistency test (4000 rpm); settings: 20 ppm active, 60° C.
Experimental: An RCE film persistency test was carried out as follows: • A clean jacketed RCE corrosion cell was fitted with an, auxiliary electrode, reference electrode, and gas sparge tube. • The cell was charged with 899.1 g of 5% NaCl brine. • The temperature of the circulator connected to the jacketed cell was set to 60° C. • A constant CO2 sparge of approx. 200 cm^3/min was passed through the brine in the RCE cell which was then left for 1 hour to reach equilibrium. • A C1018 mild steel coupon was washed in xylene and acetone to remove any vapour phase corrosion inhibitor and allowed to dry. • After the RCE cell reached equilibrium the mild steel coupon was connected to the RCE shaft and inserted into the RCE cell. • Isopar M 99.9 g was then carefully transferred into the cell so that it floated on top of the brine. (This is done at this stage to prevent the working electrode from becoming oil wet as a periscope is unavailable) • The rotator was turned on and set to 4000 rpm. (NB. This is the fastest speed achievable using current available equipment.) • Baseline corrosion data was collected for approximately 2.5 hours. • During this time a 2% (w/w active) stock solution of Rhodafac ASI 80 was made up in methanol. • After the baseline corrosion data was collected the stock solution was injected into the RCE cell at a concentration of 20 ppm (w/w active). • The corrosion rate in the cell was recorded for at least a further 12.5 hours.

[8] = 20 ppm active; 1500 rpm; 60° C., CO2
Experimental: An RCE film persistency test was carried out as follows: • A clean jacketed RCE corrosion cell was fitted with an auxiliary electrode, reference electrode, and gas sparge tube. • The cell was charged with 899.1 g of 5% NaCl brine. • The temperature of the circulator connected to the jacketed cell was set to 60° C. • A constant CO2 sparge of approx. 200 cm^3/min was passed through the brine in the RCE cell which was then left for 1 hour to reach equilibrium. • A C1018 mild steel coupon was washed in xylene and acetone to remove any vapour phase corrosion inhibitor and allowed to dry. • After the RCE cell reached equilibrium the mild steel coupon was connected to the RCE shaft and inserted into the RCE cell. • Isopar M 99.9 g was then carefully transferred into the cell so that it floated on top of the brine. (This is done at this stage to prevent the working electrode from becoming oil wet as a periscope is unavailable) • The rotator was turned on and set to 1500 rpm. • Baseline corrosion data was collected for approximately 2.5 hours. • During this time 2% (w/w active) stock solutions of samples 2 or 3 were made up in methanol.

[9] = Bubble test (LPR), Example 1; settings: on its own
Experimental: A bubble test was carried out as follows: • Clean corrosion cells were fitted with a stirring bar, auxiliary electrode, reference electrode, gas sparge tube, and glass periscope. • Each cell was charged with 999 g of the desired corrosion fluid. In this instance a 5% NaCl brine and Isopar M oil phase was used in a 9:1 ratio. • The cells were placed in a water bath set at 60° C. and set to stir at approximately 300 rpm. • Each cell was connected to a constant sparge of CO2 approx. 60 cm^3/min and then left for 1 hour to reach equilibrium. • C1018 mild steel coupons were washed with xylene and acetone to remove any vapour phase corrosion inhibitor and allowed to dry. • After the cells reached equilibrium the mild steel coupons were connected to the working electrodes and inserted into each cell using the glass periscopes to avoid getting the electrodes oil wet. • The LPR run was started and baseline corrosion data was collected for approximately 2.5 hours. • During this time 2% (w/w product) stock solutions of samples 1&2 were made up in deionised water.
The skilled reader will appreciate that the bubble test can only be used to evaluate if a product acts as a corrosion inhibitor and to rank corrosion inhibitors in order of effectiveness. […]

CCCCCCCCCCCCP(=O)(O)O [Lauryl Phosphonic Acid (100%), Lauryl Phosphonic Acid]
Brine (ml) @ T = 30 mins [1]: 41 mL
Isopar M (ml) @ T = 30 mins [1]: 12** ml
Pad (ml) @ T = 30 mins [1]: 0 mL
Emulsion Layer (%) [1]: 0%
observation on the hydrocarbon layer ([1]; emulsification test, footnote): **Lauryl phosphonic acid appears to gel the hydrocarbon, effectively reducing the phase separation rate of the different layers
Foam Volume after 10 minutes [2]: 0 mL
Time to 1000 ml (secs) [2]: No foam
Average corrosion rate [bubble test] (mils/y) ([3]; 4 ppm): 174.2 mils/y
Average corrosion rate [weight loss] (mils/y) ([3]; 4 ppm): 146.8 mils/y
Effciency at T = 15 (%) ([3]; 4 ppm): 27.6%
Average corrosion rate [bubble test] (mils/y) ([3]; 20 ppm): 33.4 mils/y
Average corrosion rate [weight loss] (mils/y) ([3]; 20 ppm): 58.5 mils/y
Effciency at T = 15 (%) ([3]; 20 ppm): 98.5%
Average corrosion rate [bubble test] (mils/y) ([4]; 4 ppm): 174.2 mils/y
Average corrosion rate [weight loss] (mils/y) ([4]; 4 ppm): 146.8 mils/y
Effciency at T = 15 (%) ([4]; 4 ppm): 27.6%
Average corrosion rate [bubble test] (mils/y) ([4]; 20 ppm): 33.4 mils/y
Average corrosion rate [weight loss] (mils/y) ([4]; 20 ppm): 58.5 mils/y
Effciency at T = 15 (%) ([4]; 20 ppm): 98.5%

CCCCCCCCCCCCP(=O)(O)O [Lauryl Phosphonic Acid]
Surface tension at 30 second (mN/m) [5]: 38.8* mN/m

CCCCCCCCP(=O)(O)O [Octyl Phosphonic Acid (80%), Octyl Phosphonic Acid]
Foam Volume after 10 minutes [2]: 0 mL
Time to 1000 ml (secs) [2]: No foam
Average corrosion rate [bubble test] (mils/y) ([3]; 4 ppm): 267.4 mils/y
Average corrosion rate [weight loss] (mils/y) ([3]; 4 ppm): 244.3 mils/y
Effciency at T = 15 (%) ([3]; 4 ppm): 0%
Average corrosion rate [bubble test] (mils/y) ([3]; 20 ppm): 49.1 mils/y
Average corrosion rate [weight loss] (mils/y) ([3]; 20 ppm): 48.1 mils/y
Effciency at T = 15 (%) ([3]; 20 ppm): greater than 95%
Effciency at T = 15 (%) ([3]; 20 ppm, listed as OPA (80%)): 96.3%
solubility in methanol [6]: fully soluble in methanol
Average corrosion rate (RCE test) ([7]; CO2): 89 mils/y
Average corrosion rate (Weight Loss) ([7]; CO2): 56 mils/y
Effciency at T = 15 ([7]; CO2): 93%
Effciency at T = 15 ([7]; CO2, listed as octylphosphonic acid): > 90%
Average corrosion rate (RCE test) [8]: 61 mils/y
Average corrosion rate (Weight Loss) [8]: 56 mils/y
Efficiency at T = 15 [8]: 96%
Average corrosion rate [bubble test] (mils/y) ([4]; 4 ppm): 267.4 mils/y
Average corrosion rate [weight loss] (mils/y) ([4]; 4 ppm): 244.3 mils/y
Effciency at T = 15 (%) ([4]; 4 ppm): 0%
Average corrosion rate [bubble test] (mils/y) ([4]; 20 ppm): 49.1 mils/y
Average corrosion rate [weight loss] (mils/y) ([4]; 20 ppm): 48.1 mils/y
Effciency at T = 15 (%) ([4]; 20 ppm): 96.3%

CCCCCCCCP(=O)(O)O [Octyl Phosphonic Acid (100%)—OPA, Octyl Phosphonic Acid]
Brine (ml) @ T = 30 mins [1]: 50 mL
Isopar M (ml) @ T = 30 mins [1]: 50 mL
Pad (ml) @ T = 30 mins [1]: 0 mL
Emulsion Layer (%) [1]: 0%

CCCCCCCCP(=O)(O)O [Octyl Phosphonic Acid]
Surface tension at 30 second (mN/m) [5]: 58.5* mN/m

ethylhexyl acid phosphate
corrosion inhibition properties [9]: no corrosion inhibition properties
